The values that follow come from US8044042B2, “Thienotriazolodiazepine compound and medicinal use thereof” (Mitsubishi Tanabe Pharma Corporation, priority 2005, dated 2011).

Test [1] has as its system TYPE II Collagen-Induced Arthritis in DBA/1J Mouse. In words: Type II collagen-induced arthritis in DBA/1J mouse. It is filed as in vivo. The note with it: 840 h. Here is the method: Bovine Type II collagen (purchased from collagen technical workshop) (100-200 μg) was mixed with complete Freund's adjuvant (manufactured by Sigma-Aldrich Ltd.) containing killed tuberculosis H37Ra. Using the resulting emulsion, 6 to 7-week-old male DBA/1J mice (CHARLES RIVER LABORATORIES JAPAN, INC.) were subcutaneously immunized at the tail root twice at 3 week intervals, whereby arthritis was developed. A test compound was suspended or dissolved in 0.5% carboxymethylcellulose (manufactured by Sigma-Aldrich Ltd.), and repetitively administered orally at a dose of 0.1-30 mg/kg body weight using an oral gavage needle for 2 weeks from the day of booster. As to this model, the symptoms of arthritis of four limbs were evaluated based on the following judgment criteria using the scores of from 0 to 4. The arthritis score of each mouse was shown by the total of the scores of four limbs (maximum: 16 points).
As regards the arthritis score, each group (n=5-6) was evaluated using an average value and mean error, with a group administered only with a vehicle being control, and Mann-Whitney U test was used for statistical analysis, wherein p value of 0.05 or below was determined to be significant. In the following, the suppressive action of the compound of the present invention on mouse collagen induced arthritis is shown by the suppressing rate (%) (1−(average arthritis score of compound administration group)/(average arthritis score of control group)×100) calculated from the average arthritis score at 35 days after the primary immunization.

Test [2] concerns CD28-dependent T cell growth. Briefly: Mouse T cell proliferation stimulated with anti-CD28 antibody and PMA (tritiumthymidine uptake). It is filed as cell-based. The note with it: for IC50: T-cell, BALB/c mouse T cells, 10 ng/mL PMA and 250 ng/mL anti-CD28 antibody, tritiumthymidine uptake, read-out: CD28-dependent T cell growth suppressive action (IC50); for CD28-dependent T cell growth suppressive action (in words): mouse T cells stimulated with PMA and anti-CD28 antibody. On the procedure:
The spleen was aseptically isolated from 6-7-week-old male BALB/c mice (CHARLES RIVER LABORATORIES JAPAN, INC.), and splenocyte suspension was prepared using RPMI1640 medium (manufactured by Sigma-Aldrich Ltd.). After hemolysis by a hypotonic treatment using a mixed solution of 0.83% aqueous ammonium chloride and Tris-HCl buffer (pH 7.65) at 9:1, a T cell concentrated fraction was obtained using a T cell concentrated column (manufactured by R&D systems). A cell suspension prepared using RPMI1640 medium containing 10% fetal calf serum (FCS, manufactured by Sigma-Aldrich Ltd.) was added to a flat-bottomed 96 well microtest plate (manufactured by Becton, Dickinson and Company) at 5×10^5 cells/well. Furthermore, a test compound diluted with a medium to the final concentration of 1-10000 nmol/L, 10 ng/mL PMA (manufactured by Sigma-Aldrich Ltd.) and 250 ng/mL anti-CD28 antibody (manufactured by BD pharmingen) were added, and the mixture was cultured under the conditions of 37° C., 5% carbon dioxide, 95% air for 20 hr. After the completion of culture, tritiumthymidine (specific activity: […], manufactured by MP Biochemicals) was added at 18.5 kBq/well, and the mixture was further cultured for 4 hr. Then, the cells were recovered in a glass fiber filter using a cell harvester (manufactured by Molecular Devices Corp.), the radioactivity taken into the cells was measured using a plate scintillation counter (microbeta 1460, manufactured by PerkinElmer), based on which the mouse T cell growth induced by stimulation with PMA and anti-CD28 antibody was measured. To be specific, suppressing rate (%)=(1−(radioactivity (cpm) of well added with test compound)/(radioactivity (cpm) of well without addition of test compound))×100 was calculated from the average amount of tritiumthymidine uptake (cpm) of T cells in each well added with various concentrations of test compound. In addition, based on the dose response curve obtained by plotting the average tritiumthymidine uptake amount (cpm) or suppressing rate on the vertical axis and the concentration on the transverse axis, the concentration of the compound (IC50) suppressing the value to 50% of that of the control group was determined by nonlinear regression.

Test [3] deals with Lupus Nephritis in MRL/MpJ-lpr/lpr Mouse. Briefly: Lupus nephritis in spontaneous systemic lupus erythematosus model MRL/MpJ-lpr/lpr mouse. It is filed as in vivo. As to conditions: for urine protein score (mean ± SE): 4 weeks after administration, medium group 2.8 ± 0.2, P <0.05. Here is the method:
The compound of the present invention or a pharmaceutically acceptable salt thereof was suspended or dissolved in 0.5% carboxymethylcellulose, and repetitively administered orally to male MRL/MpJ-lpr/lpr mice at 16 weeks after birth (CHARLES RIVER LABORATORIES JAPAN, INC.), that had developed lupus nephritis, at a dose of 1 and 3 mg/kg body weight for 4 weeks using an oral gavage needle. During the dosing period, urine-protein level was scored once a week using Ames urine test paper (Albustix (registered trademark), Bayer, Ltd.•Sankyo Corp.). As regards the urine protein levels, each group (n=10) was evaluated using an average value and mean error, with a group administered only with a vehicle being control, and Dunnett's test was used for statistical analysis, wherein p value of 0.05 or below was determined to be significant.

The subject of test [4] is Biphasic Auricular Edema in Egg Albumin-Induced Mouse. In words: Egg albumin-induced mouse biphasic auricular edema. It is filed as in vivo. The note with it: for suppressing rate (%) of auricular edema: 3 mg/kg oral for 3 days, 24 hr later, P <0.05; for suppressive action on edema (in words): 3 mg/kg, 24 hr after induction with egg albumin. Here is the method: Using saline (0.5 ml) containing egg albumin (10 μg, manufactured by Sigma-Aldrich Ltd.) and 1 mg of aluminum hydroxide gel, 6 to 7-week-old male BALB/c mice (CHARLES RIVER LABORATORIES JAPAN, INC.) were intraperitoneally immunized. Two weeks later, egg albumin (1.25 μg) was intradermally injected into the auricle of the mice for challenge, whereby biphasic auricular edema was induced 1 hr and 24 hr after the challenge. The compound of the present invention or a pharmaceutically acceptable salt thereof was suspended or dissolved in 0.5% carboxymethylcellulose, and repetitively administered orally at a dose of 0.01-30 mg/kg body weight for 3 days, from 2 days before the antigen challenge to the day of challenge, using an oral gavage needle. As for this model, the thickness of the auricle of the mouse was measured using a dial gauge (manufactured by Ozaki MFG. Co. Ltd.) and used as an index of auricular edema. As regards the thickness of the auricle, each group (n=8) was evaluated using an average value and mean error, with a group administered only with a vehicle being control, and t-test was used for statistical analysis, wherein p value of 0.05 or below was determined to be significant.

The subject of test [5] is Experimental Autoimmune Encephalomyelitis in SJL/J Mouse. Briefly: Experimental autoimmune encephalomyelitis in SJL/J mouse. It is filed as in vivo. The note with it: 3 weeks from immunization, average EAE score at 14 days after immunization, P <0.05. Here is the method: The 139th-151st peptides (50 μg) of rat-derived proteolipid protein (manufactured by Bachem) was mixed with complete Freund's adjuvant containing killed tuberculosis H37Ra. Using the resulting emulsion, 10-week-old female SJL/J mice (CHARLES RIVER LABORATORIES JAPAN, INC.) were subcutaneously immunized on the back, whereby experimental autoimmune encephalomyelitis (EAE) was developed. The compound of the present invention or a pharmaceutically acceptable salt thereof was suspended or dissolved in 0.5% carboxymethylcellulose (manufactured by Sigma-Aldrich Ltd.), and repetitively administered orally at a dose of 3-30 mg/kg body weight using an oral gavage needle for 3 weeks from the day of immunization. As to this model, the symptoms of EAE were evaluated based on the following judgment criteria using the scores of from 0 to 5.
As regards the EAE score, each group (n=10) was evaluated using an average value and mean error, with a group administered only with a vehicle being control, and Mann-Whitney U test was used for statistical analysis, wherein p value of 0.05 or below was determined to be significant. In the following, the suppressive action of the compound of the present invention on EAE is shown by the suppressing rate (%) calculated from the average EAE score at 14 days after the immunization. […] From the results, the compound is considered effective for encephalomyelitis, multiple sclerosis and the like.

For test [6], the system named is Mouse Graft-Versus-Host Reaction (GvHR). Briefly: Mouse graft-versus-host reaction (GvHR). It is filed as in vivo. The note with it: 3 mg/kg oral for 28 days from splenocyte injection; P <0.05 vs vehicle. On the procedure: Cyclophosphamide (manufactured by Shionogi & Co., Ltd.) is administered to male BDF1 recipient mouse (8-week-old, CHARLES RIVER LABORATORIES JAPAN, INC.) at a dose of 300 mg/kg from the tail vein as a pretreatment at 24 hr prior to injection of spleen cells. The spleen was aseptically isolated from male C57BL/6 donor mouse (8-week-old, CHARLES RIVER LABORATORIES JAPAN, INC.), minced in RPMI1640 medium (manufactured by Sigma-Aldrich Ltd.), and passed through a stainless mesh to give a splenocyte single cell suspension. After removal of red blood cells by a hypotonic treatment using a mixed solution of 0.83% aqueous ammonium chloride and Tris-HCl buffer (pH 7.65) at 9:1, splenocytes were washed and suspended in physiological saline to give a splenocyte suspension. The prepared cells were injected at 1×10^8 cells/mouse into the tail vein to induce acute GvHR. The compound of the present invention or a pharmaceutically acceptable salt thereof was suspended or dissolved in 0.5% carboxymethylcellulose, and repetitively administered orally at a dose of 3-30 mg/kg body weight for 28 days from the day of splenocyte injection, and the influence on the survival time was evaluated. After induction of acute GvHR, the survival of each individual was determined every day, and the day of confirmed death was taken as the survival time of each individual. As for the survival time, log-rank test analysis was performed using the group administered with vehicle alone as a control, and the multiplicity was adjusted by the Holm's method, wherein p value of 0.05 or below was determined to be significant.

Where [7] appears, read: 3 mg/kg oral, 2 weeks from booster, average arthritis score at 35 days after primary immunization, P <0.05, read-out: suppressing rate (%) of arthritis score.

Like-named read-outs stand apart in the source and are kept apart here.

As usually defined, the IC50 is the concentration that gives 50% inhibition. Take `COC(=O)C[C@@H]1N=C(c2ccc(Cl)cc2)c2c(sc(C)c2C)-n2c(C)nnc21` [Example 1, Methyl (S)-{4-(4-chlorophenyl)-2,3,9-trimethyl-6H-thieno[3,2-f][1,2,4]triazolo[4,3-a][1,4]diazepin-6-yl}acetate]: in test [1] (po, read-out: suppressing rate (%) of arthritis score), the inhibition in vivo at 3 mg/kg came to 66.1%. In addition, in test [2], the IC50 was determined as 0.038 µM and the “CD28-dependent T cell growth suppressive action (in words)” value is “have a CD28-dependent T cell growth suppressive action”. Besides, in test [3] (1 mg/kg oral), the “urine protein score (mean ± SE)” value was determined as 1.8 ± 0.3. Moreover, in test [3] (3 mg/kg oral), the “urine protein score (mean ± SE)” value is recorded as 1.6 ± 0.2. Further, in test [3] (at not less than 1 mg/kg, oral for 4 weeks, compared to the control group), the “effect on urine protein score (in words)” value is on record as “significantly decreased the urine protein score”.

With `COC(=O)C[C@@H]1N=C(c2ccc(NCc3ccccc3)cc2)c2c(sc(C)c2C)-n2c(C)nnc21` [Example 167, Methyl (S)-{4-(4-benzylaminophenyl)-2,3,9-trimethyl-6H-thieno[3,2-f][1,2,4]triazolo[4,3-a][1,4]diazepin-6-yl}acetate], in test [4], the “suppressing rate (%) of auricular edema” value turned out to be 30.1% and the “suppressive action on edema (in words)” value was “significant suppressive action on edema”. For the same compound, the inhibition in vivo at 3 mg/kg in test [1] (setting [7]) turned out to be 61.4%. Moreover, in test [2], the IC50 came to 0.029 µM and the “CD28-dependent T cell growth suppressive action (in words)” value is “have a CD28-dependent T cell growth suppressive action”. For the same compound, in test [5] (3 mg/kg oral), the “suppressing rate (%) of EAE score” value is 62%. The median survival time in test [6] is on record as 56 days.

Regarding `COC(=O)C[C@@H]1N=C(c2ccc(-c3cccc(C#N)c3)cc2)c2c(sc(C)c2C)-n2c(C)nnc21` [Example 8, Methyl (S)-{4-(3′-cyanobiphenyl-4-yl)-2,3,9-trimethyl-6H-thieno[3,2-f][1,2,4]triazolo[4,3-a][1,4]diazepin-6-yl}acetate], in test [4], the “suppressing rate (%) of auricular edema” value was determined as 40.5% and the “suppressive action on edema (in words)” value was “significant suppressive action on edema”. In test [1] (setting [7]), the inhibition in vivo at 3 mg/kg was 50%. Moreover, in test [2], the IC50 was 0.026 µM and the “CD28-dependent T cell growth suppressive action (in words)” value is recorded as “have a CD28-dependent T cell growth suppressive action”. In test [5] (10 mg/kg oral), the “suppressing rate (%) of EAE score” value is 98%. Moreover, the median survival time in test [6] is 56 days.
